Experimental data from ChEMBL document CHEMBL5465560, “Selectivity Literature for EUbOPEN Chemogenomic Library” (2024).

How the values were obtained:
[1] = molecular target: T1, Cytoplasmic tyrosine-protein kinase BMX (Homo sapiens) (UniProt P51813); assay: Selectivity interaction (Ambit KINOMEscan and KiNATiv profiling in Jurkat cells) EUB0000090b BMX; format: cell-based; settings: at 1 µM
T1 sequence (whole entry): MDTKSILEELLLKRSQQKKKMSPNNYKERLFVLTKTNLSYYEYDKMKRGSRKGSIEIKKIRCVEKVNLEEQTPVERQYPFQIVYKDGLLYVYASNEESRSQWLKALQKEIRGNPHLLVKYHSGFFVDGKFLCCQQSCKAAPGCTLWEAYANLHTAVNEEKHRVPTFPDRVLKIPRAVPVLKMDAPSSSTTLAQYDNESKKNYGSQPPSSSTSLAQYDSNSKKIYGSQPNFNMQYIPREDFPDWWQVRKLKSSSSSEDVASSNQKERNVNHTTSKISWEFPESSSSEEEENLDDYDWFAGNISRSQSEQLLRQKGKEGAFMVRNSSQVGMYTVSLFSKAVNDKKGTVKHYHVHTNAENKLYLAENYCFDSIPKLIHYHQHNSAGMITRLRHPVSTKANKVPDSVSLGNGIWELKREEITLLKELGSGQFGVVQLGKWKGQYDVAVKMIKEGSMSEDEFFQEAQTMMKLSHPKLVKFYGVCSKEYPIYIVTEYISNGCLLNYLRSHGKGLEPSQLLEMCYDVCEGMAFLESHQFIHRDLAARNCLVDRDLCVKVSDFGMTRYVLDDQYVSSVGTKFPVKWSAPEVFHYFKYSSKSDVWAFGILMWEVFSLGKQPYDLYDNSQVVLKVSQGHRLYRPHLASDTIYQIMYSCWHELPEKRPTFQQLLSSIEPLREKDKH

[2] = molecular target: Dual specificity protein kinase CLK3 (Homo sapiens, UniProt P49761); assay: Selectivity interaction (KinomeScan (DiscoverX)) EUB0000229b CLK3; settings: at 10 µM
[3] = molecular target: T2, Serine/threonine-protein kinase RIO3 (Homo sapiens) (UniProt O14730); assay: Selectivity interaction (KinomeScan (DiscoverX)) EUB0000045b RIOK3
T2 sequence (whole entry): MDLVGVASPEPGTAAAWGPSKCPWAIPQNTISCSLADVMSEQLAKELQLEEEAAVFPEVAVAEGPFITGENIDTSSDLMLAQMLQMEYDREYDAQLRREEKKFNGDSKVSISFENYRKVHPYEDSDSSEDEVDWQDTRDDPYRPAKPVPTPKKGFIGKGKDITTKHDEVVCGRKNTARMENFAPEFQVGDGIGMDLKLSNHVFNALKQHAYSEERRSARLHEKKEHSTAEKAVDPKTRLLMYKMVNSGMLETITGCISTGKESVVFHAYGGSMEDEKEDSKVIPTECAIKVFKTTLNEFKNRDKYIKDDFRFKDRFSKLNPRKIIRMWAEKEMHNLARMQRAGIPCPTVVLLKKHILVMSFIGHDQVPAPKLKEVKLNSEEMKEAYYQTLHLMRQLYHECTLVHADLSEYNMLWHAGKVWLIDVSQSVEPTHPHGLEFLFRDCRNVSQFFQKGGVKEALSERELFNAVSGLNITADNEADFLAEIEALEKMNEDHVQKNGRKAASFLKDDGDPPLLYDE

[4] = molecular target: T3, Dual specificity mitogen-activated protein kinase kinase 5 (Homo sapiens) (UniProt Q13163); assay: Selectivity interaction (KinomeScan (DiscoverX)) EUB0001619a MAP2K5; settings: at 1 µM
T3 sequence (whole entry): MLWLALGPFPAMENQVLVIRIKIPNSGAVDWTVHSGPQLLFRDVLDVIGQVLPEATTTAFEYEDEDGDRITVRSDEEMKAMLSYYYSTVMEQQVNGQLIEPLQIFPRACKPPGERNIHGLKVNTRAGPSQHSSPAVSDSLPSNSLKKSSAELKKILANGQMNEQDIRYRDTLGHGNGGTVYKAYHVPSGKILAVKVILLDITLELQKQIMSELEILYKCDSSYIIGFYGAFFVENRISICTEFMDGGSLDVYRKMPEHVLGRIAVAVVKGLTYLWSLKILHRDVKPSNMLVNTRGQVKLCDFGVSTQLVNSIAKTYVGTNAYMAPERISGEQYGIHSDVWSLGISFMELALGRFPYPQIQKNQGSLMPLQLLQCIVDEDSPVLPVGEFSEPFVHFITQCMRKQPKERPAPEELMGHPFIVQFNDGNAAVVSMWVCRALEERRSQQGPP

[5] = molecular target: Ribosomal protein S6 kinase alpha-4 (Homo sapiens) (UniProt O75676); assay: Selectivity interaction (KinomeScan (DiscoverX)) EUB0001619a RPS6KA4; settings: at 1 µM
[6] = molecular target: Aurora kinase B (Homo sapiens, UniProt Q96GD4); assay: Selectivity interaction (Kinase panel (DSF assay)) EUB0001559a AURKB
[7] = molecular target: T4, Tyrosine-protein kinase ITK/TSK (Homo sapiens) (UniProt Q08881); assay: Selectivity interaction (Kinase panel (KiNativ target engagement assay in Jurkat cells)) EUB0001635a ITK; format: cell-based; settings: at 1 µM
T4 sequence (whole entry): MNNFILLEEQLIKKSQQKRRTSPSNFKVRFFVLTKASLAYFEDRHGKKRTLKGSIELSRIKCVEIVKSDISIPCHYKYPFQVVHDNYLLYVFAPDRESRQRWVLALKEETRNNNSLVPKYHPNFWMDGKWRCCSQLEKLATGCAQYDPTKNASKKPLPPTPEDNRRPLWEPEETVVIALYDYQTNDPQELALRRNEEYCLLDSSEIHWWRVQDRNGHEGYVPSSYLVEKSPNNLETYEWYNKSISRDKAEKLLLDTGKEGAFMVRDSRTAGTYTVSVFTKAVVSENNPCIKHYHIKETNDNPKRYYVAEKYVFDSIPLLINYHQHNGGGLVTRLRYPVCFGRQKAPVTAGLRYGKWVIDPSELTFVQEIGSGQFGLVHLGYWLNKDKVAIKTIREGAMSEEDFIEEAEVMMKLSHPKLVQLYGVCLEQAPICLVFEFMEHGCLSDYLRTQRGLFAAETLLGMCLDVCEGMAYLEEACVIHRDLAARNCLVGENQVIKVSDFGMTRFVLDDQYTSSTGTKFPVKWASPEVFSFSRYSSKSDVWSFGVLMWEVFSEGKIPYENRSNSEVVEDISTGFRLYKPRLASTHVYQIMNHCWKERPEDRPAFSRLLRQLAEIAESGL

[8] = molecular target: Mitogen-activated protein kinase 1 (Homo sapiens, UniProt P28482); assay: Selectivity interaction (KinomeScan (DiscoverX)) EUB0000666a MAPK1; settings: at 10 µM
Sequence of Mitogen-activated protein kinase 1 (P28482 whole entry): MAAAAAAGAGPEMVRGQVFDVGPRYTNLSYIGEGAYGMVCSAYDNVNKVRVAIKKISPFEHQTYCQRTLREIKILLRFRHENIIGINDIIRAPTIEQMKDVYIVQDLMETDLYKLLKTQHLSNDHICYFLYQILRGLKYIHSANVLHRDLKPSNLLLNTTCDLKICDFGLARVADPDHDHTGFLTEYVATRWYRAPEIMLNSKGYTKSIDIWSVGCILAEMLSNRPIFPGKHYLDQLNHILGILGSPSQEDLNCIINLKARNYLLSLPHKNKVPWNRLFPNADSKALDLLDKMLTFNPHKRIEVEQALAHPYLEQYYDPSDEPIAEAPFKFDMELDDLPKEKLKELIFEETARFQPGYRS

Sequence of Aurora kinase B (Q96GD4 whole entry): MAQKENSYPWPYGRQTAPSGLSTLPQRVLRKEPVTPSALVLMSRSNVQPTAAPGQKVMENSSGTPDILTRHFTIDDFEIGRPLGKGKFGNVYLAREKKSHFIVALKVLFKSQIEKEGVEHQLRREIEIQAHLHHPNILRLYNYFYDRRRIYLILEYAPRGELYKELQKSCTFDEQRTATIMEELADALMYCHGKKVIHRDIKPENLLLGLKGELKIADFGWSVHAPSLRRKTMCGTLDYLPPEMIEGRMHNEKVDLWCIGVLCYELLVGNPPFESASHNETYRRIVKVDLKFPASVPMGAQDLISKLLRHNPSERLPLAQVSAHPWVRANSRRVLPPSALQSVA
Sequence of Ribosomal protein S6 kinase alpha-4 (Homo sapiens) (O75676 whole entry, looked up): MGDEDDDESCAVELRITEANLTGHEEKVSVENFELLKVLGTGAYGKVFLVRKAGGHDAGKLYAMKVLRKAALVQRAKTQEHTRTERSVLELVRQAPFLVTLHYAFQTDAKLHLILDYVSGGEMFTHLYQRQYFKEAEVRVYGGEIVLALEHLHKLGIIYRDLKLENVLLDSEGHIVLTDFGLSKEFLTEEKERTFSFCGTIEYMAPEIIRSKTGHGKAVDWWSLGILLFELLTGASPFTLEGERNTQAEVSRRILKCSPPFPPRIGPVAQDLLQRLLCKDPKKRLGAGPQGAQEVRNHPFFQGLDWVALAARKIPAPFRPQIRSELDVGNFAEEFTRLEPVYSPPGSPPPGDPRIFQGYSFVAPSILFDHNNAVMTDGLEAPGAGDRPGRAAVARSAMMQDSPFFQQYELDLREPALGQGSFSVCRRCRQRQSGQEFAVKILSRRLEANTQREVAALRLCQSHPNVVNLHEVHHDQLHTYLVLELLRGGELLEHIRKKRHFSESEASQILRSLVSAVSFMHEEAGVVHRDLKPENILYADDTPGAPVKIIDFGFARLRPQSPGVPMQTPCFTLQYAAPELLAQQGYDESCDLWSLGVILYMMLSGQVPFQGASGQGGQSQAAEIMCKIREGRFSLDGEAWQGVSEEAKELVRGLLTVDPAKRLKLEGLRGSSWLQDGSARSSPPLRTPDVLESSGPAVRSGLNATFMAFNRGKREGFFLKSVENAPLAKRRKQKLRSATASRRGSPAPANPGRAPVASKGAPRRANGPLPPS
Sequence of Dual specificity protein kinase CLK3 (P49761 whole entry, looked up): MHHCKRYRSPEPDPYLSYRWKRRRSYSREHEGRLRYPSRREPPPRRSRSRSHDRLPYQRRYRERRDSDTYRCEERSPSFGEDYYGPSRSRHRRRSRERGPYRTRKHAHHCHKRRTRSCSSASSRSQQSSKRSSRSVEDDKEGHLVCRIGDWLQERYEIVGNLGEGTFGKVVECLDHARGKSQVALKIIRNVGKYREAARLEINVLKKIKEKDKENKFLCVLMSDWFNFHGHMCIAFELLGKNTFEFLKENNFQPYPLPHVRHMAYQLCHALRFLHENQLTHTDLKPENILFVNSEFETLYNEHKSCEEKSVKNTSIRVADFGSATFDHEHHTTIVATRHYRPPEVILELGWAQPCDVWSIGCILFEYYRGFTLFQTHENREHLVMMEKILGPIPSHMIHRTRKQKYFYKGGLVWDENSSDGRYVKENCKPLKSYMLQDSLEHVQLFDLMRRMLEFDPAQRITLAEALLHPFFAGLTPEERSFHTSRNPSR

`CN(C)C/C=C/C(=O)Nc1ccc(C(=O)N2CCCC(Nc3ncc(Cl)c(-c4c[nH]c5ccccc45)n3)C2)cc1` (stereo not given) was tested, and the % of control [1] was 95%.
For `COc1cc(N(C)c2ccnc3ccc(C(F)(F)F)cc23)cc(OC)c1OC`, the % binding [2] was 59%.
For `C=CC(=O)Nc1cc(-n2c(=O)ccc3cnc4ccc(-c5ccc(NS(C)(=O)=O)cc5)cc4c32)ccc1C`, the % of control ([3]; at 1 µM) was 55% and the % of control ([3]; at 10 µM) was 60%.
Compound `N#Cc1cccc(-c2c[nH]c3ncnc(N4CCOCC4)c23)c1` has a % of control [4] of 14% and a % of control [5] of 71%.
Compound `CN(C(=O)c1cnn2cccnc12)c1cc2c(cc1N1CCOCC1)C(=O)N(C[C@@H](F)C(C)(C)O)C2` has a dTM [6] of -1.6 K.
Compound `C=CC(=O)Nc1ccc(C(=O)Nc2[nH]nc3c2CN(C(=O)N[C@H](CN(C)C)c2ccccc2)C3(C)C)cc1` has a % of engagement ([7]; Selectivity number of off-targets 0.0, Selectivity number of targets 233.0, Source Knowledge https://www.sciencedirect.com/science/article/pii/S2451945619300674?via%3Dihub) of 0.3% and a % of engagement [7] of 2.5%.
With `O=C(NOC[C@H](O)CO)c1ccc(F)c(F)c1Nc1ccc(I)cc1F` the % of control [8] was 100%.
